Reference: article PMC10318527, “Utilization of dietary mixed-linkage β-glucans by the Firmicute Blautia producta” (The Journal of Biological Chemistry, 2023)
Like-named read-outs stand apart in the source and are kept apart here.

How the values were obtained:
BpSBPMLG = BpSBPMLG (Blautia producta, UniProt A0ABX6JB09); test: Isothermal titration calorimetry of oligosaccharide binding to BpSBPMLG; design: species or system Blautia producta ATCC 27340; conditions: for -TΔS^0 / n (binding stoichiometry) / ΔG^0 / ΔH: ITC at 25 °C, 10 mM sodium phosphate pH 7.0
Protocol: The binding of β-(1,4), β-(1,3), and MLG-oligosaccharides to BpSBPMLG was measured at 25 °C in 10 mM sodium phosphate buffer (pH 7) using a MicroCal PEAQ-ITC (Malvern). The protein was extensively dialyzed against 10 mM sodium phosphate and all glycan ligands were also dissolved in the same buffer to minimize the heat of dilution. 13 injections of an oligosaccharide were titrated on BpSBPMLG present in the sample cell. Various preliminary titration setups were tried by changing amounts of protein (5–100 μM) and ligand (50 μM–10 mM) to get the best experimental conditions. Thermodynamic binding parameters [calculates binding affinity (Kd), stoichiometry (n), enthalpy (ΔH), Gibbs free energy change (ΔG), and entropy (ΔS)] were determined using the MicroCal PEAQ-ITC analysis software.

BpGH3-AR8MLG = BpGH3-AR8MLG (Blautia producta, UniProt A0ABX6J8C8); assay type: biochemical, Blautia producta ATCC 27340
Protocol: (§2) 150 μl of a freshly prepared 8:2 mixture of reagent A (50 mM sodium sulfite, 0.3 M 4-hydroxybenzhydrazide and 0.6 M HCl) and reagent B (50 mM trisodium citrate, 10 mM CaCl2, 0.5 M NaOH) were added to 50 μl sample. The reaction cocktail was boiled for 10 min at 100 °C. After the reaction was cooled down, the absorbance was recorded at 410 nm using the SpectraMax i3x multi-mode microplate reader. A calibration curve with different concentrations of glucose (0, 2, 4, 8, 16, 40, 80, 100, 200, 300, and 500 μM) was employed for each experiment to calculate the released amount of glucose (reducing end equivalents). The same samples were also used for control measurement, and the control value was subtracted from test reading prior to calculate kinetics parameters. In all cases, the Km, Vmax, and kcat were analyzed on GraphPad Prism. Three independent replicates were used for each test. TLC analyses were used for understanding the enzymatic degradation profiles of various oligosaccharides.

BpGH94MLG [1] = target: T1, BpGH94MLG (Blautia producta, UniProt A0A7G5MNS2); test: Phosphorolysis activity of BpGH94MLG on substrates (TLC); assay type: biochemical, Blautia producta ATCC 27340; conditions: inorganic phosphate, 37 °C
T1 sequence (A0A7G5MNS2 1-804): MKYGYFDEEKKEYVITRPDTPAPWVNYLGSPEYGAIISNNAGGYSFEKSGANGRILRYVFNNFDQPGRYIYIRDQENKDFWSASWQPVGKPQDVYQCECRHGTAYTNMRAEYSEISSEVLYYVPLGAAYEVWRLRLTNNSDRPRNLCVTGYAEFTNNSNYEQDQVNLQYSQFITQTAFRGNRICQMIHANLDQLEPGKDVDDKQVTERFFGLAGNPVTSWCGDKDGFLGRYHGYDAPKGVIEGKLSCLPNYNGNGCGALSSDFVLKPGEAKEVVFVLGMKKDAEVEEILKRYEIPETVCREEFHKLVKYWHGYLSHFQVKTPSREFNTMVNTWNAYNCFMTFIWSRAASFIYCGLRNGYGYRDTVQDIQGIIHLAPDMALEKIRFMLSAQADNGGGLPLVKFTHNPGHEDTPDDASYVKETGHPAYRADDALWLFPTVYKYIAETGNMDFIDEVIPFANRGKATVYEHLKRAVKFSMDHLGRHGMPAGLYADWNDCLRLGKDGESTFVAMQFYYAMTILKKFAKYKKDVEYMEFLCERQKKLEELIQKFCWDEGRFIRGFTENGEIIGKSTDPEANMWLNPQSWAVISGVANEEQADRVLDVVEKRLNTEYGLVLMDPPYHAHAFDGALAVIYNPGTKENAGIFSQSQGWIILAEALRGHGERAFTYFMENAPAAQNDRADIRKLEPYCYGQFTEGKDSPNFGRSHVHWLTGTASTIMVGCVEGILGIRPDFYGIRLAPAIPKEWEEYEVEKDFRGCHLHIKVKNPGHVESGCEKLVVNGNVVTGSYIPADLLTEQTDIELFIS
Protocol: (§1) TLC was used for analyzing enzymatic actions. […] Kinetics parameters for BpGH94MLG were determined with G4G3G, G4G4G3G and cellotriose, following a p-hydroxybenzoic acid hydrazide (PAHBAH) reducing sugar assay ([69]).

BpGH3-X62MLG = target: T2, BpGH3-X62MLG (Blautia producta, UniProt A0ABX6JIM0); test: Hydrolysis kinetics of BpGH3-X62MLG (PAHBAH assay, TLC); conditions: TLC
T2 sequence (A0ABX6JIM0 1-920): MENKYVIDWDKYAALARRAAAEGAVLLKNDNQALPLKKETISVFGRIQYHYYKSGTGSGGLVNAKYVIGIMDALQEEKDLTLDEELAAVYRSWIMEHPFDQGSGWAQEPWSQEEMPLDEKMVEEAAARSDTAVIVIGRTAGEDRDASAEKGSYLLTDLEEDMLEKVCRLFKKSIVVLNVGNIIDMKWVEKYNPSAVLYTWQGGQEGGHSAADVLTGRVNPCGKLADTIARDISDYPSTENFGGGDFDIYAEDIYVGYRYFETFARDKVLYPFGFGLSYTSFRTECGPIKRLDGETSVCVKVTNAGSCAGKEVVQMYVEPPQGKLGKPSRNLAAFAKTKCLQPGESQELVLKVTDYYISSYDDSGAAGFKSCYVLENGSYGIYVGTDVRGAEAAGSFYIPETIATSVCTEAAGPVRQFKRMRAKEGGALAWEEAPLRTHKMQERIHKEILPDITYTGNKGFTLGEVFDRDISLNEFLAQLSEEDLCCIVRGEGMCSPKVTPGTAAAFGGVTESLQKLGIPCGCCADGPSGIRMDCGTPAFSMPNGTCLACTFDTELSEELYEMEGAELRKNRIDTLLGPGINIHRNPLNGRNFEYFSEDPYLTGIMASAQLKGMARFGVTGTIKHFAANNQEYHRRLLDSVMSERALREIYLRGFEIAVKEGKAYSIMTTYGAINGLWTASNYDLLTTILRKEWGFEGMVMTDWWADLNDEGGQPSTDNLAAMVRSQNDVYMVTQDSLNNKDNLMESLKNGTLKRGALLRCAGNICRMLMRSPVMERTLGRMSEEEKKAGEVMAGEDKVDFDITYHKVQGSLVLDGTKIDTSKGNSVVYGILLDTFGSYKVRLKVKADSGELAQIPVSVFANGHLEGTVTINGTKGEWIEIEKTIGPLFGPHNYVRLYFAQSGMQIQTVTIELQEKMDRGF
Protocol: as §2

BpGH94MLG [2] = target: T1, BpGH94MLG; test: Phosphorolysis kinetics of BpGH94MLG (PAHBAH assay); assay type: biochemical, Blautia producta ATCC 27340
Protocol: as §1

[3] = target: β-mannooligosaccharide binding protein of Roseburia; design: method as in PMID 30796211; conditions: cited from earlier work
B. producta ATCC 27340 [4] = test: Growth of B. producta on β-glucans; assay type: cell-based, Blautia producta ATCC 27340; conditions: minimal medium containing 1% glucan
Protocol: Active culture of B. producta and culture conditions were maintained following the recently reported procedure ([31]). Once B. producta grew, cells were centrifuged, and the obtained supernatant was decanted. A pellet of cells was then washed three times with phosphate-buffered saline (PBS) and washed cells were suspended in 2 ml PBS. […] The growth assessment experiments were performed for 96 h, following our recently established protocol ([82]).

BpGH16MLG = test: Initial screening of BpGH16MLG against substrates (TLC); assay type: biochemical, Blautia producta ATCC 27340; conditions: pH 5.7, 37 °C, 2 h
Protocol: After the appropriate incubation time, the reaction was terminated by boiling (5 min), and generated oligosaccharides were analyzed by thin layer chromatography (TLC). Typically, 1 μl of the reaction mixture was used for TLC analysis. TLC analysis was performed on Silica Gel 60 F254 (Merck), and produced sugars were visualized by spraying TLC with 5% H2SO4 in ethanol, followed by heating.

BpGH16MLG (BPGH16) = test: Michaelis-Menten kinetics of BpGH16MLG on β-glucans (DNS assay); assay type: biochemical, Blautia producta ATCC 27340; conditions: native BPGH16; DNS assay; pH 5.7, 37 °C
Protocol: Then, reactions were terminated by boiling for 5 min. Enzymatic assays were determined with 3,5- dinitrosalicylic acid (DNS) assay ([85]). In brief, 0.05 g Na2SO3 and 1 g DNS were mixed in a 50 ml water-containing reagent bottle and stirred about 6 h using a magnetic stirrer. After that, 200 μl phenol was added and made up to 100 ml. A working solution of DNS was prepared by adding 50 μl glucose (20% (w/v) stock) in prepared 100 ml of reagent mixtures and immediately used for experiments without adding NaOH. 80 μl DNS reagent was added to the reaction mixtures and incubated at 100 °C for 10 min, followed by ice-cooling for 10 min. Consequently, recorded the developed color spectrophotometrically at 575 nm ([85]). A standard curve generated by different concentrations of maltose was used for determining released reducing sugars in each case.

B. producta ATCC 27340 [5] = tested on: B. producta ATCC 27340; design: method as in PMID 33043794; conditions: cited from earlier work
RaCDP = tested on: RaCDP; design: method as in PMID 23802549; conditions: phosphorolytic reaction; cited from earlier work
TaCDP = tested on: TaCDP; design: method as in PMID 28687766; conditions: phosphorolytic reaction; cited from earlier work
Rt/CtCDP = tested on: Rt/CtCDP; design: method as in PMID 12153715; conditions: phosphorolytic reaction; cited from earlier work
[6] = PAHBAH assay, 100 mM HEPES pH 6.5, 37 °C

Chain of BpGH3-AR8MLG (A0ABX6J8C8 entry or part of it): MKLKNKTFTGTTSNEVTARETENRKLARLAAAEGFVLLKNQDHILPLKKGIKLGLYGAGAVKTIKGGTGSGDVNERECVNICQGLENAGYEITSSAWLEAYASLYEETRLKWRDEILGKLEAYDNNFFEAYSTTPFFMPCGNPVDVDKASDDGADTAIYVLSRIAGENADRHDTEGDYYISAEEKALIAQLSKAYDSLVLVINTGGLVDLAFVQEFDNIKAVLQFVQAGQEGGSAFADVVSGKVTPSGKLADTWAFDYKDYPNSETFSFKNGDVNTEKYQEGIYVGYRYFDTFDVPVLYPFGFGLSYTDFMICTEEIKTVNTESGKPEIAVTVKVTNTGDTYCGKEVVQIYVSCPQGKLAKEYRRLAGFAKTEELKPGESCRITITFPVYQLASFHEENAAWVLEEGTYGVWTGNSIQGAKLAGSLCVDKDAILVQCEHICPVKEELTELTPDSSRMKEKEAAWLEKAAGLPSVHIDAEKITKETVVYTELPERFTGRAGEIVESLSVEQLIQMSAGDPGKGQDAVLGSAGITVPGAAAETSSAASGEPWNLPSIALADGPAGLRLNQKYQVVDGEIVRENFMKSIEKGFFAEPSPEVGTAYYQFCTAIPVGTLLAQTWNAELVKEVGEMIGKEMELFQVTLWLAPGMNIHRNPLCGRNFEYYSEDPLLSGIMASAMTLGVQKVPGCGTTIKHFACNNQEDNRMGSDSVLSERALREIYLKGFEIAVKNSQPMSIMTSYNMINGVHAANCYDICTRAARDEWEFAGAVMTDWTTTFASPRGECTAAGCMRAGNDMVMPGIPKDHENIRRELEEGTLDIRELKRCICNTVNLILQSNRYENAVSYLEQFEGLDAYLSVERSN
Chain of BpSBPMLG (A0ABX6JB09 entry or part of it): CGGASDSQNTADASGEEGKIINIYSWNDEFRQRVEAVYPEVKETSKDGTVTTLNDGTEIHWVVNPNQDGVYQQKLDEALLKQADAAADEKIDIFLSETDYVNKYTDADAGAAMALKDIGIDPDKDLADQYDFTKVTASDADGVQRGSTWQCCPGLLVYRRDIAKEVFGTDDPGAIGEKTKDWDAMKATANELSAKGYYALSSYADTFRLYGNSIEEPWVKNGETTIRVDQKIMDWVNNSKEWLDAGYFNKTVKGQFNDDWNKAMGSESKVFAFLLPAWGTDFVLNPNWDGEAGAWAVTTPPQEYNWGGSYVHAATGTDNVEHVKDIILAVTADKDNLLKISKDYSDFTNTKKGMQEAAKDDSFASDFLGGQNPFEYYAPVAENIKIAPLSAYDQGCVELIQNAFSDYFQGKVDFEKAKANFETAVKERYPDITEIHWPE

Row | Compound | Kd (BpSBPMLG) [µM] | -TΔS^0 (BpSBPMLG) [kcal/mol] | n (binding stoichiometry) (BpSBPMLG) | ΔG^0 (BpSBPMLG) [kcal/mol] | ΔH (BpSBPMLG) [kcal/mol] | phosphorolysis activity of BpGH94MLG (in words) (BpGH94MLG [1]) | activity of BpGH16MLG on substrate (initial screening) (BpGH16MLG) | Km (BpGH16MLG (BPGH16)) [mg/mL] | kcat (BpGH16MLG (BPGH16)) [s⁻¹] | other results
1 | OC[C@H]1O[C@@H](O[C@H]2[C@H](O)[C@@H](O)[C@H](O[C@H]3[C@H](O)[C@@H](CO)OC(O)[C@@H]3O)O[C@@H]2CO)[C@H](O)[C@@H](O)[C@@H]1O (stereo partly drawn) [G4G3G, Glc-β-1-4-Glc-β-1-3-Glc] | 1.01 | 4.4 | 0.42 ± 0.01 | -8.18 | -12.6 ± 0.32 | cleaved | – | – | – | cleavage by BpGH3-AR8MLG (in words) (BpGH3-AR8MLG; TLC): cleaved; cleavage by BpGH3-X62MLG (in words) (BpGH3-X62MLG): cleaved; Km lower compared to cellotriose (BpGH94MLG [2]): about 1.85 fold
2 | OC[C@H]1O[C@@H](O[C@H]2[C@H](O)[C@H](O)[C@H](O[C@H]3[C@H](O)[C@H](O)[C@H](O[C@H]4[C@H](O)[C@H](O)C(O)O[C@@H]4CO)O[C@@H]3CO)O[C@@H]2CO)[C@@H](O)[C@@H](O)[C@@H]1O (stereo partly drawn) [mannotetraose] | – | – | – | – | – | – | – | – | – | Kd [3]: 3.89 µM
3 | Lichenan | – | – | – | – | – | – | did cleave | 0.13 ± 0.02 | 36 ± 0.5 | growth of B. producta on the glucan (B. producta ATCC 27340 [4]): able to grow
4 | Laminarin | – | – | – | – | – | – | did cleave | 0.24 ± 0.03 | 43 ± 0.6 | growth of B. producta on the glucan (B. producta ATCC 27340 [5]): does not support the growth
5 | OC[C@H]1O[C@@H](O[C@H]2[C@H](O)[C@@H](O)[C@H](O[C@H]3[C@H](O)[C@@H](O)C(O)O[C@@H]3CO)O[C@@H]2CO)[C@H](O)[C@@H](O)[C@@H]1O (stereo partly drawn) [Cellotriose] | 1.74 | 0.8 | 0.77 ± 0.02 | -7.9 | -7.1 ± 0.31 | cleaved | did not show activity | – | – | Km (BpGH3-AR8MLG; [6]): 260 ± 30 µM; kcat (BpGH3-AR8MLG; [6]): 15 ± 0.2 s⁻¹; Km (RaCDP): 6060 µM; kcat (RaCDP): 76.2 s⁻¹; Km (TaCDP): 94 µM; kcat (TaCDP): 0.28 s⁻¹; Km (Rt/CtCDP): 810 µM; kcat (Rt/CtCDP): 4 s⁻¹
